Series [1] is described as follows: In vitro metabolic stability in mouse liver microsomes. The conditions noted are these: tissue homogenate, pH 7.4. As for the experimental part:
1. Aqueous kinetic solubility. […]
3. In vitro mouse microsomial stability. […]
microsomes (Sekisui Xenotech, LCC), 0.1M Tris-HCl buffer (pH 7.4), and 10% DMSO. The final […]
After pre-incubation, the cofactors (NADPH, G6P, G6PDH, MgCl2 pre-dissolved in 0.1M Tris-HCl) were added to the incubation mixture and the incubation was continued at 37 °C for 1h. At each time point (0, 5, 15, 30, 60 min), 30µL of incubation mixture was diluted with 200 µL cold acetonitile spiked with 200 nM of warfarin as internal standard, followed by centrifugation at 3500 g for 30 min. The supernatant was further diluted with H2O (1:1) for analysis.
An aliquot of 200 µl of the supernatant was removed, and the concentration of the test compound was […]
quantified by LC-MS/MS. The percentage of the test compound remaining at each time point relative […]
to t=0 was calculated. The half-lives (t½) were determined by a one-phase decay equation using a […]
non-linear regression of compound concentration vs time.

The target in series [2] is T1, NKCC1 (Mus musculus, UniProt P55012).
T1 construct: primary neuronal cultures of dissociated hippocampal neurons were prepared from E18 C57BL/6J mice; endogenous in cells; host or cells: primary hippocampal neurons from E18 C57BL/6J mice, 3 DIV
T1 sequence (P55012 1-1205): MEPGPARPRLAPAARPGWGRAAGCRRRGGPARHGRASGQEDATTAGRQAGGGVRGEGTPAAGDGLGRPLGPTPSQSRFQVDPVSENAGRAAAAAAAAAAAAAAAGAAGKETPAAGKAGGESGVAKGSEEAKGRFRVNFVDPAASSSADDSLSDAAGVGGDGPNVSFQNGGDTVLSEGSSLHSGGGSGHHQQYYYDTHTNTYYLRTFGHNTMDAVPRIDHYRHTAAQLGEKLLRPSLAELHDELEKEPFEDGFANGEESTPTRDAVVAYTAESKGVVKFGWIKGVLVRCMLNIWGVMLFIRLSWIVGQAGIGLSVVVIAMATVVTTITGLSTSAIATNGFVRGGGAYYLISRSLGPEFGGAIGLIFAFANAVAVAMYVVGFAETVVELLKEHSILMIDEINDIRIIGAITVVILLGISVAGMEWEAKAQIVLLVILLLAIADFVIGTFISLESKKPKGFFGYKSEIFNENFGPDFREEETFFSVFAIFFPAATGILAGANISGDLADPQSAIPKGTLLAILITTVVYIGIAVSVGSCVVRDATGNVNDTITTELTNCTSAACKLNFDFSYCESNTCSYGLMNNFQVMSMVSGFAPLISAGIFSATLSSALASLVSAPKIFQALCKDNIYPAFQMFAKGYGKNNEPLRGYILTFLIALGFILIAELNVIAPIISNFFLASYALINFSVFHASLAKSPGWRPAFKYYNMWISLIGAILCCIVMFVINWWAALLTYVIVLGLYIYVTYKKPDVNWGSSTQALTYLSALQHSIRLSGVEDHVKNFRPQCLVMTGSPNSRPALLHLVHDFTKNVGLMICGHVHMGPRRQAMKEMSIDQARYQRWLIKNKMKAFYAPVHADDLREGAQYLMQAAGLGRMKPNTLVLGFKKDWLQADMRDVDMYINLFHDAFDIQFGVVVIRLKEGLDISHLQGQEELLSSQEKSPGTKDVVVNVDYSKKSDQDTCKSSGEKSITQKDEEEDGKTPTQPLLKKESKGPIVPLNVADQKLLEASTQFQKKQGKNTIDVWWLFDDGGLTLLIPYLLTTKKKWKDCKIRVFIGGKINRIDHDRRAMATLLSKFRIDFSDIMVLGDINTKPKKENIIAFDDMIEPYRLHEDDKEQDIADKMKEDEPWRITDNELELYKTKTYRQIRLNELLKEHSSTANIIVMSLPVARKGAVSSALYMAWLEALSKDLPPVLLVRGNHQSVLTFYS
Kind of series: Ca2+ influx assay in immature primary neuronal cultures (indirect measure of NKCC1 inhibition). To be noted: cultured neurons, 3 DIV. Format: cell-based. As for the experimental part: To perform the Ca^2+-influx assay, primary neuronal cultures of dissociated hippocampal neurons were prepared from E18 C57BL/6J mice (Charles River) as previously described[56] and plated in 96-well black-walled, clear-bottomed plates coated with poly-L-lysine (Sigma; 0.1 mg/mL in 100 mM borate buffer, pH 8.5) at a density of 30,000 cells per well. Neurons were maintained in neurobasal medium supplemented with 2% B-27 supplement, 0.5 mM glutamine, 50 U/mL of penicillin, and 50 μg/mL of streptomycin (all from Gibco). The cells were incubated at 37 °C and 5% CO2 until DIV 3 for the Ca^2+ influx assay.
At 3 DIVs, neurons were loaded with 2.5 μM of the Ca^2+-sensitive day Fluo4-AM (Invitrogen) in extracellular solution (145 mM NaCl, 5 mM KCl, 10 mM HEPES, 5.55 mM glucose, 1 mM MgCl2, and 2 mM CaCl2, pH 7.4). After 15 min, cells were washed twice with extracellular solutions and treated with bumetanide (as a positive control), DMSO (as a negative control), or each of our compounds at 10 μM or 100 μM, in extracellular solution for 15 min. Plates were then loaded onto a Spark (Tecan) multiplate reader equipped with an automatic liquid injector system, and Fluo4 fluorescence was recorded with excitation at 485 nm and emission at 535 nm. For each well, fluorescence was first recorded for 20 s of the baseline and for 20 s after delivery of GABA (100 μM). To evaluate neuronal viability, fluorescence was recorded for an additional 20 s after delivery of a depolarizing KCl stimulus (90 mM final concentration in wells). To represent the fluorescent traces in time, we normalized the fluorescence value for each time point to the average of the fluorescence value for the first 20 s of the baseline (ΔF/F0). To quantify the average effects as represented by the bar plots, we measured the maximum peak increase in ΔF/F0 fluorescence upon GABA application normalized over the maximum peak increase in ΔF/F0 fluorescence upon KCl application. We then presented in the figures all the data as a percentage of the fluorescence increase versus the value of the control DMSO.

Series [3] is described as follows: In vitro mouse plasma stability. Format: in vitro ADME. To be noted: mouse plasma at 37 °C; incubated at 5 μM (final DMSO 0.1%); read-out: t1/2 plasma.
A short description of series [4]: Aqueous kinetic solubility in PBS pH 7.4. The conditions noted are these: phosphate buffered saline (PBS); aqueous kinetic solubility from 10 mM DMSO solution in PBS pH 7.4; target concentration 250 μM (final DMSO 2.5%). Format: physicochemical. The procedure:
1. Aqueous kinetic solubility.
30 µL aliquots of 10 mM DMSO stock solution of the test compound were incubated in Phosphate
Buffered Saline (PBS) at pH 7.4 at 25°C for 24h. After centrifugation the dissolved compound in the
supernatant was quantified by LC-MS/MS.
Aqueous kinetic solubility was determined by UV quantification at
215 nm. […]

9 compounds from PMC8311653, “Design, Synthesis, In Vitro and In Vivo Characterization of Selective NKCC1 Inhibitors for the Treatment of Core Symptoms in Down Syndrome” (Journal of Medicinal Chemistry, 2021) can be followed below.

Converted amounts (≈) assume the structure as drawn.

The inhibition is how much of the control response was suppressed. High values mean strong suppression, low ones little suppression. For orientation: solubility means how much of the substance goes into solution per volume. Low values mean little dissolved substance, high ones much dissolved substance. With `CNS(=O)(=O)c1cc(C(=O)O)ccc1NCCCCCCCC(F)(F)F` [Compound 32, 3-(-N,N-Methylsulfamoyl)-4-(8,8,8-trifluorooctylamino)benzoic Acid], the figures for the half-life at 5 μM in series [1] and in series [3] were over 1 h and over 2 h, respectively. This compound displayed an inhibition at 10 µM in series [2] of 9.3 ± 1.9%. The inhibition at 100 µM in series [2] (100 μM) was determined as 40.4 ± 4.8%. The compound further had a solubility at 24 h in series [4] of 242 µM (≈ 95.9 µg/mL).

With `O=C(O)c1ccc(NCCCCCCCC(F)(F)F)c(S(=O)(=O)N2CCCC2)c1` [Compound 33, 3-Pyrrolidin-1-ylsulfonyl-4-(8,8,8-trifluorooctylamino)benzoic Acid], the half-life at 5 μM was over 1 h in series [1] and over 2 h in series [3]. For the same compound, 10 µM produced 31.7 ± 4.1% inhibition in series [2]. The inhibition at 100 µM in series [2] (100 μM) was 50.9 ± 6.7%. The same compound yielded a solubility at 24 h in series [4] of 66 µM (≈ 28.8 µg/mL).

Regarding `O=C(O)c1ccc(NCCCCCCCC(F)(F)F)c(S(=O)(=O)N2CCCCC2)c1` [Compound 34, 3-(1-Piperidylsulfonyl)-4-(8,8,8-trifluorooctylamino)benzoic Acid], the half-life at 5 μM is over 1 h in series [1] and over 2 h in series [3]. Also, in series [2], the inhibition at 10 µM is 49.2 ± 4.5%. The solubility at 24 h in series [4] amounted to 13 µM (≈ 5.86 µg/mL).

In series [1], `O=C(O)c1ccc(NCCCCCCCC(F)(F)F)c(S(=O)(=O)N2CCOCC2)c1` [Compound 35, 3-Morpholinosulfonyl-4-(8,8,8-trifluorooctylamino)benzoic Acid] yielded a half-life at 5 μM of over 1 h. Besides, in series [2], the inhibition at 10 µM was found to be 16.5 ± 2.7%. Moreover, in series [2] (100 μM), the “Inhibition 100 μM Ca2+ influx (%)” value came to 67.7 ± 2.8% and the inhibition at 100 µM was 67.8 ± 2.8%. Besides, the half-life at 5 μM in series [3] was over 2 h. Also, in series [4], the solubility at 24 h is 244 µM (≈ 110 µg/mL).

As to `O=C(O)c1ccc(NCCCCCCCC(F)(F)F)c(S(=O)(=O)NC2CCCC2)c1` [Compound 36, 3-(-N-Cyclopentylsulfamoyl)-4-(8,8,8-trifluorooctylamino)benzoic Acid], the half-life at 5 μM in series [1] was over 1 h; in series [3], over 2 h. The compound further displayed an inhibition at 10 µM in series [2] of 45.3 ± 5.3%. Besides, the solubility at 24 h in series [4] was determined as 223 µM (≈ 100 µg/mL).

For `O=C(O)c1ccc(NCCCCCCCC(F)(F)F)c(S(=O)(=O)NC2CCCCC2)c1` [Compound 37, 3-(-N-Cyclohexylsulfamoyl)-4-(8,8,8-trifluorooctylamino)benzoic Acid], the figures for the half-life at 5 μM in series [1] and in series [3] were over 1 h and over 2 h, respectively. The same compound gave an inhibition at 10 µM in series [2] of 49.5 ± 4.5%. In addition, the concentration in solution in series [4] (solubility at 24 h) came to 9 µM (≈ 4.18 µg/mL).

With `O=C(O)c1ccc(NCCCCCCCC(F)(F)F)c(S(=O)(=O)NC2CCOCC2)c1` [Compound 38, 3-(N-(Tetrahydro-2H-pyran-4-yl)sulfamoyl)-4-((8,8,8-trifluorooctyl)amino)benzoic Acid], the figures for the half-life at 5 μM in series [1] and in series [3] were over 1 h and over 2 h, respectively. The compound also returned an inhibition at 10 µM in series [2] of 7.1 ± 2.2%. In addition, the inhibition at 100 µM in series [2] (100 μM) amounted to 36.2 ± 3.4%. The compound further came in with a solubility at 24 h in series [4] of 244 µM (≈ 114 µg/mL).

As for `CN(C)S(=O)(=O)c1cc(C(=O)O)c(Cl)cc1NCCCCCCCC(F)(F)F` [Compound 39, 2-Chloro-5-(N,N-dimethylsulfamoyl)-4-((8,8,8-trifluorooctyl)amino)benzoic Acid], the results for the half-life at 5 μM in series [1] and in series [3] were over 1 h and over 2 h, respectively. Further, the inhibition at 10 µM in series [2] was found to be 19.4 ± 2.8%. The same compound displayed an inhibition at 100 µM in series [2] (100 μM) of 59.6 ± 3.1%. This compound gave a solubility at 24 h in series [4] of 241 µM (≈ 107 µg/mL).

Regarding `COc1cc(NCCCCCCCC(F)(F)F)c(S(=O)(=O)N(C)C)cc1C(=O)O` [Compound 41, 5-(N,N-Dimethylsulfamoyl)-2-methoxy-4-((8,8,8-trifluorooctyl)amino)benzoic Acid], the half-life at 5 μM in series [1] is over 1 h; in series [3], over 2 h. This compound came in with an inhibition at 10 µM in series [2] of 14.2 ± 2%. Besides, in series [2] (100 μM), 100 µM produced 45.7 ± 4.5% inhibition. In series [4], this compound had a solubility at 24 h of 188 µM (≈ 82.8 µg/mL).
